Results as given in PubChem BioAssay AID2060494 (Molecular Pharmacology Branch, DTP, NCI, 2025).

System: 435261-313-R-J1-PDC complex spheroid viability
Experiment: Anticancer human tumor 435261-313-R-J1-PDC patient-derived colon adenocarcinoma cell line growth inhibition [GQUAD]
Settings: for IC50: curve of first compound; for viability, T/C: stronger effect = lower value
Outline: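 Tumor cells were grown as complex spheroids with HUVEC endothelial cells and mesenchymal stem cells as stroma. G-quadruplex stabilizers were combined with targeted agents over half-log dilutions from near the clinical Cmax, or from 10 microM.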

[1] = second compound 0.0316 µM, first compound 0.0316 µM
[2] = second compound 0.0316 µM, first compound 0.1 µM
[3] = second compound 0.0316 µM, first compound 0.316 µM
[4] = second compound 0.0316 µM, first compound 1 µM
[5] = second compound 0.0316 µM, first compound 3.16 µM
[6] = second compound 0.0316 µM, first compound 10 µM
[7] = second compound 0.1 µM, first compound 0.0316 µM
[8] = second compound 0.1 µM, first compound 0.1 µM
[9] = second compound 0.1 µM, first compound 0.316 µM
[10] = second compound 0.1 µM, first compound 1 µM
[11] = second compound 0.1 µM, first compound 3.16 µM
[12] = second compound 0.1 µM, first compound 10 µM
[13] = second compound 0.316 µM, first compound 0.0316 µM
[14] = second compound 0.316 µM, first compound 0.1 µM
[15] = second compound 0.316 µM, first compound 0.316 µM
[16] = second compound 0.316 µM, first compound 1 µM
[17] = second compound 0.316 µM, first compound 3.16 µM
[18] = second compound 0.316 µM, first compound 10 µM
[19] = second compound 1 µM, first compound 0.0316 µM
[20] = second compound 1 µM, first compound 0.1 µM
[21] = second compound 1 µM, first compound 0.316 µM
[22] = second compound 1 µM, first compound 1 µM
[23] = second compound 1 µM, first compound 3.16 µM
[24] = second compound 1 µM, first compound 10 µM
[25] = second compound 3.16 µM, first compound 0.0316 µM
[26] = second compound 3.16 µM, first compound 0.1 µM
[27] = second compound 3.16 µM, first compound 0.316 µM
[28] = second compound 3.16 µM, first compound 1 µM
[29] = second compound 3.16 µM, first compound 3.16 µM
[30] = second compound 3.16 µM, first compound 10 µM
[31] = second compound 10 µM, first compound 0.0316 µM
[32] = second compound 10 µM, first compound 0.1 µM
[33] = second compound 10 µM, first compound 0.316 µM
[34] = second compound 10 µM, first compound 1 µM
[35] = second compound 10 µM, first compound 3.16 µM
[36] = second compound 10 µM, first compound 10 µM
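Note: spheroids exposed to the agents for seven days before readout.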
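Throughout, for viability, T/C: percent of vehicle control viability with DMSO wells as 100%.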

SMILES: Cc1cccc(N(C)C(=O)C2C(O)CCN2c2nc(C)cc(C(F)(F)F)c2C#N)c1 (centres undefined) + Cc1[nH]c2ccc(F)cc2c1-c1nc2c3cccnc3c3ncccc3c2[nH]1
- IC50 (second compound 0.0316 µM): > 10 µM
- IC50 (second compound 0.1 µM): > 10 µM
- IC50 (second compound 0.316 µM): > 10 µM
- IC50 (second compound 1 µM): > 10 µM
- IC50 (second compound 3.16 µM): < 0.0316 µM
- IC50 (second compound 10 µM): < 0.0316 µM
- viability, T/C [1]: 123%
- viability, T/C [2]: 111%
- viability, T/C [3]: 121%
- viability, T/C [4]: 91.4%
- viability, T/C [5]: 97.2%
- viability, T/C [6]: 92.3%
- viability, T/C [7]: 106%
- viability, T/C [8]: 141%
- viability, T/C [9]: 138%
- viability, T/C [10]: 135%
- viability, T/C [11]: 117%
- viability, T/C [12]: 113%
- viability, T/C [13]: 76.1%
- viability, T/C [14]: 105%
- viability, T/C [15]: 104%
- viability, T/C [16]: 104%
- viability, T/C [17]: 117%
- viability, T/C [18]: 115%
- viability, T/C [19]: 95.2%
- viability, T/C [20]: 86.7%
- viability, T/C [21]: 152%
- viability, T/C [22]: 129%
- viability, T/C [23]: 117%
- viability, T/C [24]: 59%
- viability, T/C [25]: 30.2%
- viability, T/C [26]: 41.4%
- viability, T/C [27]: 38.5%
- viability, T/C [28]: 44.9%
- viability, T/C [29]: 47.7%
- viability, T/C [30]: 42.9%
- viability, T/C [31]: 27.1%
- viability, T/C [32]: 27.7%
- viability, T/C [33]: 33.7%
- viability, T/C [34]: 27.1%
- viability, T/C [35]: 28.7%
- viability, T/C [36]: 23.5%

SMILES: Nc1ccn(C2OC(CO)C(O)C2(F)F)c(=O)n1 (centres undefined) + Cc1[nH]c2ccc(F)cc2c1-c1nc2c3cccnc3c3ncccc3c2[nH]1
- IC50 (second compound 0.0316 µM): 0.161 µM
- IC50 (second compound 0.1 µM): < 0.0316 µM
- IC50 (second compound 0.316 µM): < 0.0316 µM
- IC50 (second compound 1 µM): < 0.0316 µM
- IC50 (second compound 3.16 µM): < 0.0316 µM
- IC50 (second compound 10 µM): < 0.0316 µM
- viability, T/C [1]: 74%
- viability, T/C [2]: 50.2%
- viability, T/C [3]: 47.9%
- viability, T/C [4]: 42%
- viability, T/C [5]: 57.9%
- viability, T/C [6]: 51.1%
- viability, T/C [7]: 53.2%
- viability, T/C [8]: 45.5%
- viability, T/C [9]: 42.1%
- viability, T/C [10]: 49.5%
- viability, T/C [11]: 50.3%
- viability, T/C [12]: 51.9%
- viability, T/C [13]: 39.5%
- viability, T/C [14]: 50%
- viability, T/C [15]: 46.3%
- viability, T/C [16]: 44%
- viability, T/C [17]: 48.1%
- viability, T/C [18]: 33.1%
- viability, T/C [19]: 50.4%
- viability, T/C [20]: 40.6%
- viability, T/C [21]: 42.1%
- viability, T/C [22]: 34.7%
- viability, T/C [23]: 41.8%
- viability, T/C [24]: 35.5%
- viability, T/C [25]: 26.7%
- viability, T/C [26]: 31.9%
- viability, T/C [27]: 25.5%
- viability, T/C [28]: 24.7%
- viability, T/C [29]: 28.9%
- viability, T/C [30]: 25.9%
- viability, T/C [31]: 16.3%
- viability, T/C [32]: 19.1%
- viability, T/C [33]: 18%
- viability, T/C [34]: 20.2%
- viability, T/C [35]: 15.7%
- viability, T/C [36]: 18.7%
